Measured values reported in US20130085133A1, “ANTI-VIRAL TREATMENT AND ASSAY TO SCREENFOR ANTI-VIRAL AGENT” (Sourthern Research Institute Office of Commercialization …, priority 2010, published 2013).
Like-named read-outs stand apart in the source and are kept apart here.

Tests used:
[1] = tested on: RSV, Long strain; assay: virus titer Reduction (VTR) assay, progeny virus TCID50 in HEp-2 cells; assay type: cell-based, respiratory syncytial virus (RSV); conditions: for TCID-50 Reduction @ 3 ug/ml / log reduction at 3 µg/mL: 3 ug/ml compound; for TCID-50 Reduction @ 3 ug/ml / TCID-50 Reduction 6 @ ug/ml / TCID-50 Reduction 12 @ ug/ml / TCID-50 Reduction 25 @ ug/ml: log reduction in progeny virus titer; for TCID-50 Reduction 6 @ ug/ml / log reduction at 6 µg/mL: 6 ug/ml compound; for TCID-50 Reduction 12 @ ug/ml / log reduction at 12 µg/mL: 12 ug/ml compound; for TCID-50 Reduction 25 @ ug/ml / log reduction at 25 µg/mL: 25 ug/ml compound; for log reduction at 3 µg/mL / log reduction at 6 µg/mL / log reduction at 12 µg/mL / log reduction at 25 µg/mL / log reduction at 5 µg/mL / log reduction at 50 µg/mL: human respiratory syncytial virus, 48 h; for log reduction at 3 µg/mL: read-out: TCID-50 Reduction @ 3 ug/ml; for log reduction at 6 µg/mL: read-out: TCID-50 Reduction 6 @ ug/ml; for log reduction at 12 µg/mL: read-out: TCID-50 Reduction 12 @ ug/ml; for log reduction at 25 µg/mL: read-out: TCID-50 Reduction 25 @ ug/ml; for log reduction at 5 µg/mL: 5 ug/ml compound, read-out: TCID-50 Reduction @ 5 ug/ml; for log reduction at 50 µg/mL: 50 ug/ml compound, read-out: TCID-50 Reduction @ 50 ug/ml
Method: Four concentrations of each compound were evaluated (Table 3). Briefly, the four concentrations of test compounds, HEp-2 cells (8×10^3 per well) and RSV, Long strain (MOI=0.9) were plated in 96 well microtiter plates. The plates were incubated for 48 hours. Fifteen (15) μl of 10-fold serial dilution of progeny virus containing medium from respective samples (test compound treated or untreated) was transferred to infect fresh HEp-2 cells (2×10^3 cells per well) in a 384 well format. Plates were incubated for an additional 6 days and luminescence was measured using Cell Titer-Glo reagent (Promega Inc.) to determine cell viability. […] A well showing lesser than 50% cell viability was regarded as positive for virus infection. Four replicates for each virus dilution were analyzed and the number of virus positive wells (out of 4) was plotted versus the dilution. TCID50 was calculated to be the dilution that produced two positive wells out of four using ActivityBase software (IDBS, Inc, Guilford, UK).

[2] = tested on: HEp-2 cells; assay: cytotoxicity assay (percent viability of HEp-2 cells, Cell Titer-Glo); conditions: cell viability of HEp-2 cells (text: IC50), top concentration 25 ug/mL (Chembridge), 50 uM (Enamine, SRI Proprietary)
Method: (§1) Test compounds were evaluated by measuring their antiviral activity, cell toxicity, and selectivity. Test compounds were serially diluted in a plate to plate matrix or “stacked plate” matrix. All 320 compounds in a source plate were diluted together resulting in a 10 point dose response dilution series. It was visualized as a serial dilution series proceeding vertically through a stack of plates with the high dose plate on top and the low dose plate on the bottom.
(§2) Following the six day incubation period, the assay plates were equilibrated to room temperature for 30 min and an equal volume (30 μL) of Cell Titer-Glo reagent (Promega Inc.) was added to each well using a WellMate (Matrix, Hudson, N.H.) and plates were incubated for an additional 10 min at room temperature. At the end of the incubation, luminescence was measured using a Perkin Elmer Envision™ multi-label reader (PerkinElmer, Wellesley, Mass.) with an integration time of 0.1 s.
(§3) Data was analyzed using ActivityBase software (IDBS, Inc, Guilford, UK). thirty two control wells containing cells only and twenty four wells containing cells and virus were included on each assay plate and used to calculate Z′ value for each plate and to normalize the data on a per plate basis. […] Eight ribavirin positive control wells were included on each plate for quality control purposes, but were not used in Z′ calculations. […] In the toxicity assay, results are described as percent viability and the calculation is the same.
(§4) An EC50 (for CPE inhibition) and IC50 (for cell viability) were calculated for each substance using the 4 parameter Levenburg-Marquardt algorithm with parameter A locked at 0 and parameter B locked at 100. Standard deviation, normalized chi2 and hill slope were used to evaluate the curves. Values were not extrapolated beyond the tested range of concentrations.

[3] = tested on: respiratory syncytial virus (RSV) strain Long; conditions: EC50 for CPE inhibition, HEp-2 cells, six days, tested range 25 ug/mL to 0.048 ug/mL (Chembridge), 50 uM to 0.097 uM (Enamine, SRI Proprietary)
[4] = cytotoxicity assay (percent viability of HEp-2 cells, Cell Titer-Glo); conditions: human, HEp-2 cells
Method: as §1, §2, §3, §4

[5] = tested on: respiratory syncytial virus (RSV) strain Long; assay: microbe, parasite or virus in culture; conditions: human respiratory syncytial virus, HEp-2, 144 h

## Cc1ccc2[nH]c3c(c2c1)CN(C)CC3 [AB00275559]
[1]
  TCID-50 Reduction @ 3 ug/ml: 1.00
  TCID-50 Reduction 6 @ ug/ml: 1.93
  TCID-50 Reduction 12 @ ug/ml: 2.21
  TCID-50 Reduction 25 @ ug/ml: 1.93
[2]; unit not given
  CC50: >25.00
[3]; unit not given
  EC50: 6.29

## CCN(CC)C(=O)C1CCCc2c1[nH]c1ccc(Cl)cc21 (stereo not drawn) [AB00279132]
[1]
  TCID-50 Reduction @ 3 ug/ml: 1.00
  TCID-50 Reduction 6 @ ug/ml: 3.63
  TCID-50 Reduction 12 @ ug/ml: 4.22
  TCID-50 Reduction 25 @ ug/ml: 3.83
[2]; unit not given
  CC50: >25.00
[3]; unit not given
  EC50: 1.92

## CCC(Sc1nnc2c3ccccc3n(CCc3ccccc3)c2n1)C(=O)Nc1ccc(S(N)(=O)=O)cc1 (stereo not drawn) [AB00287440]
[2]; unit not given
  CC50: >25.00
[3]; unit not given
  EC50: 17.84

## N#CCCCSc1nnnn1-c1cccc(Cl)c1 [AB00287736]
[2]; unit not given
  CC50: >25.00
[3]; unit not given
  EC50: 16.16

## Cc1[nH]c2ccccc2c1-c1csc(-c2ccncc2)n1 [AB00291074]
[2]; unit not given
  CC50: >25.00
[3]; unit not given
  EC50: 20.59

## COc1cc(OC)c(OC)cc1C=Nn1c(S)nnc1-c1ccc(C(C)(C)C)cc1 [AB00291789]
[2]; unit not given
  CC50: >25.00
[3]; unit not given
  EC50: 10.96

## COc1ccc(-c2cn3cccnc3n2)cc1F [AB00292655]
[2]; unit not given
  CC50: >25.00
[3]; unit not given
  EC50: 10.88

## C=CCn1c(SCc2ccc(OC)c([N+](=O)[O-])c2)nnc1-c1cccc(Br)c1 [AB00294809]
[2]; unit not given
  CC50: >25.00
[3]; unit not given
  EC50: 20.29

## Fc1ccc(-c2cc(C(F)(F)F)n[nH]2)cc1 [AB00294826]
[2]; unit not given
  CC50: >25.00
[3]; unit not given
  EC50: 16.73

## CC(=O)Nc1ccc(Nc2ncnc3sc4c(c23)CCCC4)cc1 [AB00296051]
[2]; unit not given
  CC50: >25.00
[3]; unit not given
  EC50: 16.70

## S=C(c1c[nH]c2ccc(Br)cc12)N1CCOCC1 [AB00303357]
[2]; unit not given
  CC50: >25.00
[3]; unit not given
  EC50: 21.92

## O=C(O)CCNc1nc(Cc2ccccc2)nc2sc3c(c12)CCCC3 [AB00308859]
[2]; unit not given
  CC50: >25.00
[3]; unit not given
  EC50: 20.48

## COc1cc(N2CCCC2)c(OC)cc1C=C(C#N)c1nc2ccccc2[nH]1 [AB00321587]
[2]; unit not given
  CC50: >25.00
[3]; unit not given
  EC50: 9.15

## Cc1cc(C=C(C#N)c2nc3ccccc3[nH]2)c(C)n1-c1ccccn1 [AB00342188]
[2]; unit not given
  CC50: >25.00
[3]; unit not given
  EC50: 13.11

## Cc1ccc(-c2nc3ccccc3[nH]2)cc1NC(=O)c1ccc2c(c1)OCO2 [AB00348716]
[2]; unit not given
  CC50: >25.00
[3]; unit not given
  EC50: 17.26

## CCCOc1ccc(-c2n[nH]c(SCc3ccc(C(=O)OC)o3)n2)cc1 [AB00356597]
[2]; unit not given
  CC50: >25.00
[3]; unit not given
  EC50: 11.59

## Brc1cc2nc[nH]c2c2ccccc12 [AB00358081]
[2]; unit not given
  CC50: >25.00
[3]; unit not given
  EC50: 12.07

## COc1ccc2[nH]c(C(C#N)=Cc3cc4c(cc3Cl)OCO4)nc2c1 [AB00364575]
[2]; unit not given
  CC50: >25.00
[3]; unit not given
  EC50: 17.76

## O=C(Nc1ccc(OC(F)(F)F)cc1)c1ccc2[nH]cnc2c1 [AB00368222]
[2]; unit not given
  CC50: >25.00
[3]; unit not given
  EC50: 12.26

## c1coc(-c2nn3c(Cn4cnc5ccccc54)nnc3s2)c1 [AB00369924]
[1]
  log reduction at 3 µg/mL: 1
  log reduction at 6 µg/mL: 2.62
  log reduction at 12 µg/mL: 3.22
  log reduction at 25 µg/mL: 2.61
[4]
  CC50 at 6 days: > 25 µg/mL
[5]
  EC50: 1.71 µg/mL

## CCOC(=O)C1=C(C)NC(C)=C(C(=O)OCC)C1c1ccc(C#N)cc1 [AB00370331]
[1]
  log reduction at 3 µg/mL: -0.15
  log reduction at 6 µg/mL: 1.39
  log reduction at 12 µg/mL: 1.7
  log reduction at 25 µg/mL: 2.89
[4]
  CC50 at 6 days: > 25 µg/mL
[5]
  EC50: 4.2 µg/mL

## CSc1ccccc1C(=O)Nc1ccc(S(=O)(=O)Nc2cccc(Cl)c2Cl)cc1 [AB00370446]
[1]
  log reduction at 3 µg/mL: 1
  log reduction at 6 µg/mL: 1.32
  log reduction at 12 µg/mL: 3.21
  log reduction at 25 µg/mL: 6.57
[4]
  CC50 at 6 days: > 25 µg/mL
[5]
  EC50: 4.37 µg/mL

## Cc1ccc2[nH]c(-c3sc4nc(C)ccc4c3N)nc2c1 [AB00372475]
[2]; unit not given
  CC50: >25.00
[3]; unit not given
  EC50: 21.04

## CC(C)=CCC1=C(O)C(=O)c2ccccc2C1=O [AB00514453]
[1]
  log reduction at 5 µg/mL: 0.06
  log reduction at 12 µg/mL: 3.33
  log reduction at 25 µg/mL: 4.47
  log reduction at 50 µg/mL: 4.87
[4]
  CC50 at 6 days: > 50 µM
[5]
  EC50: 7.23 µM

## CCOC(=O)c1ccc(-n2c(C)cc(C=C(C#N)c3nc4ccccc4[nH]3)c2C)cc1 [AB00709376]
[2]; unit inferred
  CC50: > 50 µM
[3]; unit inferred
  EC50: 10.8 µM

## CC(N)=C(C#N)C(=O)CN1C(=O)NC(Cc2c[nH]c3ccccc23)C1=O (stereo not drawn) [AB00722846]
[2]; unit inferred
  CC50: > 50 µM
[3]; unit inferred
  EC50: 1.74 µM

## COCC(C)n1c(SC(C)C(=O)Nc2cc([N+](=O)[O-])ccc2Cl)nc2ccccc2c1=O (stereo not drawn) [AB00725538]
[1]
  log reduction at 5 µg/mL: 2.95
  log reduction at 12 µg/mL: 4.98
  log reduction at 25 µg/mL: 5.56
  log reduction at 50 µg/mL: 5.87
[4]
  CC50 at 6 days: > 50 µM
[5]
  EC50: 6.3 µM

## CC(=O)c1ccc(NC(=O)C(Cc2c[nH]c3ccccc23)NC(=O)c2cccs2)cc1 (stereo not drawn) [AB00776619]
[2]; unit inferred
  CC50: > 50 µM
[3]; unit inferred
  EC50: 27.3 µM

## Cc1nn(-c2ccccc2)c(C)c1C(=O)C(=O)Nc1cccc(Cl)c1 [AB00785138]
[1]
  log reduction at 5 µg/mL: 1.96
  log reduction at 12 µg/mL: 4.24
  log reduction at 25 µg/mL: 4.56
  log reduction at 50 µg/mL: 3.87
[4]
  CC50 at 6 days: > 50 µM
[5]
  EC50: 7.52 µM

## CC1CCc2[nH]c3ccc(C(=O)OCC(=O)C(C)(C)C)cc3c2C1 (stereo not drawn) [AB00796257]
[2]; unit inferred
  CC50: > 50 µM
[3]; unit inferred
  EC50: 24.8 µM

## COCCn1c(SC(C)C(=O)Nc2cccc(C(F)(F)F)c2)nc2ccccc21 (stereo not drawn) [AB00802246]
[1]
  log reduction at 5 µg/mL: 2.26
  log reduction at 12 µg/mL: 3.98
  log reduction at 25 µg/mL: 4.42
  log reduction at 50 µg/mL: 5.87
[4]
  CC50 at 6 days: > 50 µM
[5]
  EC50: 9.58 µM

## CC(=O)Nc1ccc(NC(=O)c2ccc3[nH]c4c(c3c2)CC(C)CC4)cc1 (stereo not drawn) [AB00804772]
[2]; unit inferred
  CC50: > 50 µM
[3]; unit inferred
  EC50: 43.4 µM

## Cc1sc(NC(=O)Cc2ccccc2)c(C(=O)O)c1C [AB00877398]
[2]; unit inferred
  CC50: > 50 µM
[3]; unit inferred
  EC50: 40.1 µM

## O=c1cnn([C@@H]2O[C@H](CO)[C@@H](O)[C@H]2O)c(=O)[nH]1 [SRI-7958]
[1]
  log reduction at 5 µg/mL: 3.58
  log reduction at 12 µg/mL: 5.98
  log reduction at 25 µg/mL: 5.56
  log reduction at 50 µg/mL: 5.87
[4]
  CC50 at 6 days: > 50 µM
[5]
  EC50: 2.4 µM

## CC(=O)Nc1nc(N)nc2ccc(CNc3ccc(C(=O)N[C@H](CCC(=O)O)C(=O)O)cc3)nc12 [SRI-10531]
[1]
  log reduction at 5 µg/mL: 0.16
  log reduction at 12 µg/mL: 0.97
  log reduction at 25 µg/mL: -0.02
  log reduction at 50 µg/mL: 0.28
[4]
  CC50 at 6 days: > 50 µM
[5]
  EC50: 9.09 µM
